# Biological target: T1, P2U2 receptor (Homo sapiens, UniProt Q9BXA5)
# T1 construct: The native human receptor was produced in oocytes by cloning the 500 bp 5′ truncation of the full-length kidney cDNA clone; expressed in transfected cells; host or cells: Xenopus laevis oocytes injected with capped in vitro transcribed RNA (pcDNA3 template, T7 polymerase)
# T1 sequence (Q9BXA5 1-334): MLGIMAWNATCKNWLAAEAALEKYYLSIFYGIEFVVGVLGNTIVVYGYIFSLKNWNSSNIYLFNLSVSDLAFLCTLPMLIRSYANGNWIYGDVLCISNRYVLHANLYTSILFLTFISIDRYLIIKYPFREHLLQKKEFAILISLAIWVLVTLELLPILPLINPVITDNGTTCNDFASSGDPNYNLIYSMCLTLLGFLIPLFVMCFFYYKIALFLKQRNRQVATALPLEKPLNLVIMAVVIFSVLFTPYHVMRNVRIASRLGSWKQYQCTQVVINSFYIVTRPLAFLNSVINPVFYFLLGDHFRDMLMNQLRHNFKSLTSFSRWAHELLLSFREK
# Assay: Two-electrode voltage clamp of agonist-induced chloride currents in Xenopus oocytes injected with P2U2 receptor cRNA
# Assay type: cell-based
# Settings: receptor expressed in Xenopus oocytes; for order of specificity as agonists of the P2U2 receptor: potencies close in value, a mere five-fold difference
# Method: As indicated above, receptor activation can also be measured by means of the two-electrode voltage clamp assay. In this assay, agonist-induced inward chloride currents are measured in voltage-clamped oocytes that express the P2U2 receptor. The technique suitable for use in the instant invention is described by Julius, et al, Science 241:558-563 (1988). The native human receptor was produced in oocytes by cloning the 500 bp 5' truncation of the full-length kidney cDNA clone into the mammalian expression vector pcDNA3 (Invitrogen). Linearized DNA was used as a template for T7 polymerase (Ambion, Promega) for generation of capped in vitro transcribed mRNA following the suppliers specifications. Adult female Xenopus laevis were anesthetized in […] 3-aminobenzoic acid ethyl ester for 10 minutes and 1 or 2 ovarian lobes were removed, followed by immediate suturing of the incisions. Oocytes were defolliculated at room temperature with collagenase (2 mg/ml) in Ca^+2-free medium (OR-2) for 1-2 hr. Oocytes were stored at […] in ND-96 (96 mM sodium chloride, 2 mM potassium chloride, 1.8 mM calcium chloride, 1 mM magnesium chloride, 5 mM HEPES (N[2-hydroxyethylpiperazine-N'[2-ethanesulfonic acid) with penicillin/streptomycin and injected with 50 nl RNA (1-2 μg/μl) 18-24 h after removal of the oocytes. Before recording, injected oocytes were stored at 18° C. for 2-3 days with daily media changes. A two-electrode voltage clamp (Axon Axoclamp2B) was used to measure agonist-induced currents from individual oocytes. Electrodes were pulled to […] of 0.2-1 MΩ and filled with 3M KCl. Recordings were made at room temperature in ND96 from oocytes clamped at -70 mV using different agonist concentrations. Water-injected oocytes were used as a control.
smiles,measurement,value
Nc1ncnc2c1ncn2[C@@H]1O[C@H](COP(=O)(O)OP(=O)(O)O)[C@@H](O)[C@H]1O [ADP],activation of the P2U2 receptor,activated
same,order of specificity as agonists of the P2U2 receptor,UTP>UDP>ADP>ATP
O=c1ccn([C@@H]2O[C@H](COP(=O)(O)OP(=O)(O)OP(=O)(O)O)[C@@H](O)[C@H]2O)c(=O)[nH]1 [UTP],activation of the P2U2 receptor,activated
same,order of specificity as agonists of the P2U2 receptor,UTP>UDP>ADP>ATP
Nc1ncnc2c1ncn2[C@@H]1O[C@H](COP(=O)(O)OP(=O)(O)OP(=O)(O)O)[C@@H](O)[C@H]1O [ATP],activation of the P2U2 receptor,activated
same,order of specificity as agonists of the P2U2 receptor,UTP>UDP>ADP>ATP
O=c1ccn([C@@H]2O[C@H](COP(=O)(O)OP(=O)(O)O)[C@@H](O)[C@H]2O)c(=O)[nH]1 [UDP],activation of the P2U2 receptor,activated
same,order of specificity as agonists of the P2U2 receptor,UTP>UDP>ADP>ATP
